According to PubChem BioAssay AID2060499 (Molecular Pharmacology Branch, DTP, NCI, 2025):

Tested on: 777334-354-R2-J4-PDC tumor spheroids with HUVEC/MSC, viability
Test: Anticancer human tumor 777334-354-R2-J4-PDC patient-derived pancreatic adenocarcinoma cell line growth inhibition [GQUAD]
Details: for IC50: curve of first compound; for viability, T/C: stronger effect = lower value
From the text: DNA G-quadruplex Stabilizer Agents in Combinations in Complex Spheroids
A high-throughput screen of multi-cell type tumor spheroids was designed to identify active combinations of DNA G-quadruplex stabilizer agents and targeted small molecules. Complex spheroids include a stromal component modeled by human endothelial cells (HUVEC) and fibroblasts modeled by human mesenchymal stem cells (MSCs). The concentration ranges selected for each drug and investigational agent were based upon clinically achievable concentrations if the clinical Cmax of the agent was known.
Compounds. The drugs and investigational agents: pidnarulex (CX-5461; NSC782164), APTO-253 (NSC789042), BRACO-19 (NSC847499), peposertib (NSC802822), ceralasertib (NSC780249), elimusertib (NSC800525), camonsertib (NSC841442), AZD-1390 (NSC803789), olaparib (NSC753686), talazoparib (NSC767125), ART-558 (NSC835418), sotorasib (NSC818433), MRTX-1133 (NSC836407), SN-38 (NSC673596), topotecan (NSC609699), etoposide (NSC141540), doxorubicin (NSC123127), gemcitabine (NSC613327), 5-fluorouracil (NSC19893), paclitaxel (NSC125973), vemurafenib (NSC761431), panobinostat (NSC761190), R-306465 (JNJ-16241199; NSC773264), adavosertib (NSC754352), TP-3654 (NSC805149), carboplatin (NSC241240), KSQ-4279 (NSC840948), and staurosporine (NSC755774) were obtained from the National Cancer Institute (NCI) Developmental Therapeutics Program Chemical Repository (34). The FDA-approved anticancer drug set is available from the NCI Developmental Therapeutics Program. […] The stock solutions were prepared in dimethyl sulfoxide (DMSO, Sigma-Aldrich, St. Louis, MO, cat. D2650) at 800-fold the tested concentration and stored at -70 degrees C prior to their use. All drugs and investigational agents were tested over a range starting from a high concentration at or near the clinical Cmax and decreasing in half-log increments. If the clinical Cmax for an agent had not been determined, the highest concentration tested was 10 microM.
2.3 Cell Culture. All cells were maintained in an incubator at 37 degrees C and 5% CO2 with 95% humidity. The PDC lines were cultured according to standard operating procedures established by the NCI PDMR. All PDCs were thawed and cultured in Matrigel-coated flasks prepared with a working solution of 1X Ham's F-12 nutrient mix, without supplementation (Invitrogen, cat. 11765054), 100 U/mL penicillin-streptomycin (Invitrogen, cat. 15140122), and 2.5% Matrigel (Corning Inc., cat. 354248) for the first three passages. The 857933-349-R-J2-PDC line was cultured in 6C/Colon 1B media, which includes advanced DMEM/F-12 (Thermo Fisher Scientific, cat. 12634028), 10 mM HEPES (Thermo Fisher Scientific, cat. 15630080), 1X GlutaMAX supplement (Thermo Fisher Scientific, cat. 35050061), 0.1 mg/mL primocin (InvivoGen, cat. ant-pm-2), 10% defined fetal bovine serum, heat inactivated (HyClone Laboratories Inc., cat. SH30070.03HI), 50% L-WRN conditioned media (ATCC, cat. CRL-3276), 1.25 mM N-Acetyl-L-cysteine (Sigma-Aldrich, cat. A9165), 10 mM nicotinamide (Sigma-Aldrich, cat. N0636), 1X B-27 supplement (Thermo Fisher Scientific, cat. 17504044), 1X N-2 supplement (Thermo Fisher Scientific, cat. 17502048), 10 microM Y-27632 dihydrochloride (Tocris Bioscience, cat. 1254), and 50 ng/mL human EGF recombinant protein (Thermo Fisher Scientific, cat. PHG0311). The 485176-168-R4-J1-PDC line was cultured in Panc media, which includes all 6C/Colon 1B media components plus 100 ng/mL human FGF-10 (Thermo Fisher Scientific, cat. 100-26), 500 nM SB-431542 (Selleckchem, cat. S1067), and gastrin (Tocris, cat. 3006).
[…]

[1] = second compound 0.0316 µM, first compound 0.0316 µM
[2] = second compound 0.0316 µM, first compound 0.1 µM
[3] = second compound 0.0316 µM, first compound 0.316 µM
[4] = second compound 0.0316 µM, first compound 1 µM
[5] = second compound 0.0316 µM, first compound 3.16 µM
[6] = second compound 0.0316 µM, first compound 10 µM
[7] = second compound 0.1 µM, first compound 0.0316 µM
[8] = second compound 0.1 µM, first compound 0.1 µM
[9] = second compound 0.1 µM, first compound 0.316 µM
[10] = second compound 0.1 µM, first compound 1 µM
[11] = second compound 0.1 µM, first compound 3.16 µM
[12] = second compound 0.1 µM, first compound 10 µM
[13] = second compound 0.316 µM, first compound 0.0316 µM
[14] = second compound 0.316 µM, first compound 0.1 µM
[15] = second compound 0.316 µM, first compound 0.316 µM
[16] = second compound 0.316 µM, first compound 1 µM
[17] = second compound 0.316 µM, first compound 3.16 µM
[18] = second compound 0.316 µM, first compound 10 µM
[19] = second compound 1 µM, first compound 0.0316 µM
[20] = second compound 1 µM, first compound 0.1 µM
[21] = second compound 1 µM, first compound 0.316 µM
[22] = second compound 1 µM, first compound 1 µM
[23] = second compound 1 µM, first compound 3.16 µM
[24] = second compound 1 µM, first compound 10 µM
[25] = second compound 3.16 µM, first compound 0.0316 µM
[26] = second compound 3.16 µM, first compound 0.1 µM
[27] = second compound 3.16 µM, first compound 0.316 µM
[28] = second compound 3.16 µM, first compound 1 µM
[29] = second compound 3.16 µM, first compound 3.16 µM
[30] = second compound 3.16 µM, first compound 10 µM
[31] = second compound 10 µM, first compound 0.0316 µM
[32] = second compound 10 µM, first compound 0.1 µM
[33] = second compound 10 µM, first compound 0.316 µM
[34] = second compound 10 µM, first compound 1 µM
[35] = second compound 10 µM, first compound 3.16 µM
[36] = second compound 10 µM, first compound 10 µM
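Further: spheroids exposed to compounds for 7 days before readout.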

For `C=CCn1c(=O)c2cnc(Nc3ccc(N4CCN(C)CC4)cc3)nc2n1-c1cccc(C(C)(C)O)n1` + CN(C)c1ccc(Nc2c3ccc(NC(=O)CCN4CCCC4)cc3nc3cc(NC(=O)CCN4CCCC4)ccc23)cc1, which IC50 (second compound 0.0316 µM) is on record?
The IC50 was 746 nM.

What about the IC50 (second compound 0.1 µM) of the same compound?
The IC50 was 907 nM.

And the IC50 (second compound 0.316 µM)?
Its IC50 is 961 nM.

And the IC50 (second compound 1 µM)?
Its IC50 is 793 nM.

And the IC50 (second compound 3.16 µM)?
The IC50 was 732 nM.

And the IC50 (second compound 10 µM)?
The IC50 was 576 nM.

What about the viability, T/C [1] of the same compound?
The viability, T/C was 101%.

What about the viability, T/C [2] of the same compound?
The viability, T/C was 94.8%.

What about the viability, T/C [3] of the same compound?
Its viability, T/C is 81.6%.

What about the viability, T/C [4] of the same compound?
The viability, T/C was 38.8%.

What about the viability, T/C [5] of the same compound?
The viability, T/C was 36.5%.

And the viability, T/C [6]?
Its viability, T/C is 37.6%.

What about the viability, T/C [7] of the same compound?
Its viability, T/C is 103%.

What about the viability, T/C [8] of the same compound?
The viability, T/C was 91.1%.

And the viability, T/C [9]?
Its viability, T/C is 84.6%.

And the viability, T/C [10]?
Its viability, T/C is 46.1%.

And the viability, T/C [11]?
Its viability, T/C is 36.8%.

And the viability, T/C [12]?
Its viability, T/C is 35.9%.

What about the viability, T/C [13] of the same compound?
The viability, T/C was 105%.

What about the viability, T/C [14] of the same compound?
The viability, T/C was 89.8%.

And the viability, T/C [15]?
The viability, T/C was 77.2%.

And the viability, T/C [16]?
The viability, T/C was 45.9%.

What about the viability, T/C [17] of the same compound?
Its viability, T/C is 38.4%.

What about the viability, T/C [18] of the same compound?
The viability, T/C was 33.9%.

And the viability, T/C [19]?
Its viability, T/C is 87%.

And the viability, T/C [20]?
The viability, T/C was 82.5%.

What about the viability, T/C [21] of the same compound?
The viability, T/C was 78%.

And the viability, T/C [22]?
The viability, T/C was 42.8%.

What about the viability, T/C [23] of the same compound?
Its viability, T/C is 38.9%.

What about the viability, T/C [24] of the same compound?
Its viability, T/C is 35.2%.

What about the viability, T/C [25] of the same compound?
The viability, T/C was 92.9%.

And the viability, T/C [26]?
The viability, T/C was 81.4%.

And the viability, T/C [27]?
The viability, T/C was 68%.

And the viability, T/C [28]?
Its viability, T/C is 41%.

And the viability, T/C [29]?
The viability, T/C was 39.2%.

What about the viability, T/C [30] of the same compound?
Its viability, T/C is 33.2%.

What about the viability, T/C [31] of the same compound?
The viability, T/C was 90.1%.

What about the viability, T/C [32] of the same compound?
The viability, T/C was 81.7%.

What about the viability, T/C [33] of the same compound?
Its viability, T/C is 59.3%.

And the viability, T/C [34]?
Its viability, T/C is 39.8%.

And the viability, T/C [35]?
The viability, T/C was 34.1%.

What about the viability, T/C [36] of the same compound?
Its viability, T/C is 25.1%.

Which results are given for `CC1COCCN1c1cc(C2(O)CC3CCC(C2)O3)c2cnn(-c3ccn[nH]3)c2n1` (centres undefined) + Cc1[nH]c2ccc(F)cc2c1-c1nc2c3cccnc3c3ncccc3c2[nH]1?
IC50 (second compound 0.0316 µM): 302 nM; IC50 (second compound 0.1 µM): 364 nM; IC50 (second compound 0.316 µM): 384 nM; IC50 (second compound 1 µM): 186 nM; IC50 (second compound 3.16 µM): < 31.6 nM; IC50 (second compound 10 µM): < 31.6 nM; viability, T/C [1]: 93.8%; viability, T/C [2]: 59.3%; viability, T/C [3]: 52.8%; viability, T/C [4]: 38.3%; viability, T/C [5]: 33.2%; viability, T/C [6]: 19%; viability, T/C [7]: 98.7%; viability, T/C [8]: 66.1%; viability, T/C [9]: 56%; viability, T/C [10]: 36.5%; viability, T/C [11]: 31.9%; viability, T/C [12]: 23%; viability, T/C [13]: 84.6%; viability, T/C [14]: 67.1%; viability, T/C [15]: 50.6%; viability, T/C [16]: 39.8%; viability, T/C [17]: 31.4%; viability, T/C [18]: 20.8%; viability, T/C [19]: 66.8%; viability, T/C [20]: 56%; viability, T/C [21]: 44.9%; viability, T/C [22]: 31.6%; viability, T/C [23]: 21.3%; viability, T/C [24]: 16.9%; viability, T/C [25]: 25.2%; viability, T/C [26]: 18.8%; viability, T/C [27]: 11.6%; viability, T/C [28]: 8.38%; viability, T/C [29]: 6.83%; viability, T/C [30]: 4.02%; viability, T/C [31]: 21.8%; viability, T/C [32]: 16.9%; viability, T/C [33]: 12.8%; viability, T/C [34]: 7.12%; viability, T/C [35]: 7.7%; viability, T/C [36]: 4.01%
